Test results taken from US7395112B2, “Method and apparatus for treating tumors using low strength electric fields” (priority 2002, dated 2008).

Experiments:
CT-26 colon carcinoma = test: LEF with chemotherapy (LEFCT-EC) in mice bearing 5 mm CT-26 tumors; format: in vivo, BALB/C mice
Protocol: Mice: BALB/C male mice were obtained from the breeding colony of Tel-Aviv University, Israel. Mice were used at 8-12 weeks of age. Animal care and experimentation were performed in accordance with the Tel-Aviv University guidelines.
Tumor: Colon carcinoma tumors were grown in mice with CT-26, a metastatic colon carcinoma cell line induced in a BALB/c mouse by chemical carcinogenesis. Cells were cultured in Dulbecco's modified Eagle's medium (DMEM) supplemented with 100 U/ml penicillin, 100 μg/ml streptomycin, 2 mM L-glutamine; 1 mM sodium pyruvate; 1% non-essential amino acid solution; 10% heat-inactivated fetal calf serum. Cultures were maintained at 37° C. in a humidified incubator with a 5% CO2 atmosphere.
Tumor cell inoculation: Mice were inoculated intracutaneously with 10^5 CT-26 cells suspended in 100 μL PBS into the low lateral side of the back. Local tumor growth was determined by measuring three mutually orthogonal tumor diameters with a caliper. The volume of tumor was calculated using the formula: Vol=D1×D2×D3×π/6, where D1, D2, D3 are three mutually orthogonal tumor diameters.
Low-strength electric field stimulation: To subject tumors to LEFs, stainless steel needles were used as electrodes. Tumors 5 mm in diameter (about 65 mm^3) were transfixed by electrode needles, with one cathode in the center of the tumor and three or four peripheral anodes. The electrodes were connected to an electric pulse generator and to an oscilloscope. Pulsed LEFs with a repetition frequency of 500 Hz and a pulse width of 180 μs were applied at 20, 40, 60 and 70 V/cm for a duration 12 min or 20 min. The electric pulses were administered 2-4 min following chemotherapeutic drug administration. Mice were anesthetized 10 min before the procedure.
Chemotherapeutic agents: Bleomycin (Sigma Israel Chemicals Ltd., Israel; Megapharm Ltd., Israel) was kept at a temperature of 2-8° C., and was dissolved in pyrogen-free PBS to a concentration enabling dosages of 50 U/kg body weight prior to use. BCNU was administered at a dosage of 35 mg/kg body weight, and 5-FU (Abic, Israel) was used at a dose of 100 mg/kg body weight.
Anesthesia: Mice were anesthetized using an anesthetic cocktail comprising a dose of imalgen at 100 mg/kg body weight and xylazine hydrochloride at 6.25 mg/kg body weight dissolved in PBS injected intraperitoneally in a volume of 0.25 ml per mouse 10 min prior to LEF treatment.
Statistical analysis: Survival times (Kaplan-Meir test), survival comparisons between groups (Mantel-Cox test), and tumor volume differences between groups were plotted using StatSoft “Statistica” statistical software.
Effect of LEF duration and strength on potentiation of bleomycin for treatment of colon carcinoma: In order to determine the optimal LEFCT-EC/bleomycin therapy for treatment of colon cancer, mice bearing CT-26 tumors were treated with LEFs of 40 V/cm for 12 min, and 20 V/cm for 12 or 20 min with or without administration of bleomycin, and survival was analyzed.

B16-F10.9 melanoma = test: LEFCT-EC in mice bearing subcutaneous B16-F10.9 melanoma; format: in vivo, C57BL/6 mice; conditions: for Tumor size (mean ± standard error): 7 days after treatment
Protocol: Animals: C57BL/6 male mice were obtained from the breeding colony of Tel-Aviv University, Israel. Mice were used at 8-12 weeks of age. Animal care and experimentation was carried out in accordance with Tel-Aviv University guidelines.
Melanoma tumor cell line: The highly metastatic, poorly immunogenic B16-F10.9 (F10.9) subclone of the B16 melanoma cell line was used to generate melanoma tumors in mice (Eisenbach L. et al., 1984. Int J Cancer 34:567). Cells were maintained in DMEM supplemented with 100 U/ml penicillin, 100 μg/ml streptomycin, 4 mM glutamine, 1 mM sodium pyruvate, 1% non-essential amino acids and 10% heat-inactivated fetal calf serum (FCS); and were cultured at 37° C. in a humidified incubator in an atmosphere of 7% carbon dioxide and 93% air.
Tumor generation protocol: F10.9 tumors were induced in C57BL/6 mice by subcutaneous injection of 2×10^5 F10.9 cells. Mice were subjected to experimental treatments once tumors reached 5 mm in diameter (about 60-70 mm^3). Chemotherapeutic drugs: The following chemotherapeutic drugs used were: cis-platinum (II) diamminedichloride (cisplatin; #P-4394, Sigma, Israel), dissolved in PBS for injections; Taxol (Mead Johnson Oncology Products, A Bristol-Myers Squibb, USA), obtained as a sterile nonpyrogenic solution containing 6 mg/ml paclitaxel, 527 mg/ml of purified Cremophor EL (polyoxyethylated castor oil) and 5-FU (Abic, Israel).
Low-strength electric field enhanced cancer therapy protocol: Mice were subjected to a single treatment of LEFCT-EC, once tumors reached 5 mm in diameter (11-17 days following tumor cell inoculation). Volumes of up to 100 μl of chemotherapeutic agents were injected into tumor loci, and exposures to electric fields were carried out 3-4 min following intratumoral injection of chemotherapeutic agents. To expose tumors to electric fields, stainless steel electrode needles (Karlsbader insect pins No 0. BioQuip Products, USA) soldered at their brassy ends with thin isolated copper wires were used. Electrodes were inserted to a depth of about 7 mm percutaneously into and in the immediate vicinity of the tumor; one cathode needle in the center of the tumor and three peripheral anodes, at a distance of about 5 mm from the cathode. The needles were connected to an electric pulse generator (Grass S48 Stimulator, USA). The field strength applied was about 40 V/cm; the repetition frequency, 500 Hz; and the pulse width, 180 μs. All mice were anesthetized prior to LEF treatment.
Statistical analysis: Statistical analysis of survival times (Kaplan-Meir test), survival comparisons between groups (Mantel-Cox test) and tumor volume differences between groups (Kolmogorov-Smirnov test) were performed using StatSoft Statistica statistical software. The 10-15% mortality rate in the 5 days following LEF or LEF-chemotherapy was considered as treatment-caused, therefore such cases of mortality were excluded.
Tumor volume determination: performed as described above in Example 1 of the Examples section.

## bleomycin
CT-26 colon carcinoma; LEF 40 V/cm 12 min, 20 V/cm 12 or 20 min, all combinations tested
  survival with bleomycin + LEF compared with LEF alone: greatly enhanced
CT-26 colon carcinoma; LEFCT-EC: drug + LEF 40 V/cm 12 min, 5 mm tumors
  cure rate: 33%
CT-26 colon carcinoma; after 21 days
  tumor size with drug + LEF relative to drug only: less than half the size
CT-26 colon carcinoma; bleomycin intratumoral + LEF 40 V/cm 12 min, after 60 days, unchanged until day 120
  survival rate: 33%
CT-26 colon carcinoma; drug alone, no LEF, intratumoral injection (5-FU intratumoral or intravenous), 5 mm tumors
  time after which half the mice died: about 51 days
B16-F10.9 melanoma; LEF-CT (drug + LEF), cisplatin 4 mg/kg, bleomycin 8 U/kg, 5-FU 150 mg/kg, taxol 20 mg/kg
  Tumor size (mean ± standard error): 573 ± 138 mm^3
B16-F10.9 melanoma; LEF-chemotherapy: intratumoral drug + LEF about 40 V/cm 12 min, 120 days (cisplatin) or 180 days (taxol, bleomycin) after inoculation
  mean survival time (MST): 48 days
B16-F10.9 melanoma; LEF-chemotherapy, 180 days after tumor inoculation
  cure rate / animals alive and free of visible tumor: 8.2%
B16-F10.9 melanoma; chemotherapy alone, intratumoral, no LEF
  mean survival time (MST): 34.3 days
B16-F10.9 melanoma; intratumoral drug injection alone, same doses
  Tumor size (mean ± standard error): 2456 ± 220 mm^3
B16-F10.9 melanoma; pooled statement for cisplatin, taxol or bleomycin
  LEFCT-EC treated mice that died two months and later after treatment with pulmonary metastatic foci, free of primary tumor: About 10%
B16-F10.9 melanoma; route comparison: bleomycin 8 U/kg intraperitoneally + LEF
  MST: 34.6 days
B16-F10.9 melanoma; route comparison: bleomycin 8 U/kg intratumorally + LEF
  MST: 46.6 days
B16-F10.9 melanoma; route comparison: bleomycin 8 U/kg intratumorally + LEF, 180 days after tumor inoculation
  animals alive: 5%
